Results from patent US20250122234A1, “NOVEL CRYSTALLINE FORM OF [(2R,3S,4R,5R)-3,4-DIHYDROXY-5-[4-(HYDROXYAMINO)-2- OXOPYRIMIDIN-1-YL]OXOLAN-2-YL]METHYL-2-METHYLPROPANOATE” (priority 2021, published 2025).

Tests used:
influenza A viruses = system: influenza A viruses; design: species or system mice; settings: mouse, in vivo, po
[1] = hygroscopicity, weight increase on exposure to water vapor in climatic chamber; format: physicochemical; settings: 24 hours, temperature (25±1)°C, relative humidity (80±2)%, 200 mg sample
[2] = study of physicochemical and technological properties

Structure (SMILES)	clinical symptoms of the disease (influenza A viruses)	titer of the virus in the nasal wash and fever (influenza A viruses)	X (%), increase in the weight of the test substance [1]	solubility [2]	stability [2]	virus titer in the nasal wash, less than in groups 2 and 3 (crystal forms I, II) (influenza A viruses)
CC(C)C(=O)OC[C@H]1O[C@@H](n2ccc(NO)nc2=O)[C@H](O)[C@@H]1O [Polymorph II, [(2R,3S,4R,5R)-3,4-dihydroxy-5-[4-(hydroxyamino)-2-oxopyrimidin-1-yl]oxolan-2-yl]methyl-2-methylpropanoate]	some animals showed a decrease in body weight and shortness of breath	a decrease in the titer of the virus in the nasal wash and a decrease in fever	5.2%	–	–	–
CC(C)C(=O)OC[C@H]1O[C@@H](n2ccc(NO)nc2=O)[C@H](O)[C@@H]1O [Polymorph I, [(2R,3S,4R,5R)-3,4-dihydroxy-5-[4-(hydroxyamino)-2-oxopyrimidin-1-yl]oxolan-2-yl]methyl-2-methylpropanoate]	some animals showed a decrease in body weight and shortness of breath	a decrease in the titer of the virus in the nasal wash and a decrease in fever	4.1%	–	–	–
CC(C)C(=O)OC[C@H]1O[C@@H](n2ccc(NO)nc2=O)[C@H](O)[C@@H]1O [[(2R,3S,4R,5R)-3,4-dihydroxy-5-[4-(hydroxyamino)-2-oxopyrimidin-1-yl]oxolan-2-yl]methyl-2-methylpropanoate]	clinical symptoms of the disease were practically not recorded	a decrease in the titer of the virus in the nasal wash and a decrease in fever	0.5%	higher solubility	improving the stability	approximately 20%
